Data reported in patent publication US11874281B2, “Assays for detecting modified compounds” (Enzo Life Sciences, Inc., priority 2010, dated 2024).

Biological target: human sphingosine kinase 1 (hSK1) (Homo sapiens, UniProt Q9NYA1)
Test: sphingosine kinase 1 assay with fluoresceinated sphingosine, barium acetate/ethanol precipitation of fluoresceinated S1P, fluorescence readout
Type: biochemical
Conditions: 100 μM inhibitor; 4 μM sphingosine fluoresceine; 500 μM ATP; 1 h at 37° C.
Text: Sphingosine is phosphorylated at the non-polar end by the enzymes sphingosine kinase 1 and sphingosine kinase 2, to form sphingosine-1-phosphate (S1P). S1P is an important signaling molecule, and serves in particular as a major regulator of vascular and immune systems. See, e.g., Lloyd-Evans et al., Nat. Med. 14:1247-1255 (2008); Ryu et al., EMBO J. 25:5840-5851 (2006); Maceyka et al., J. Lipid Res. 50:S272-S276 (2009); Peterson et al., Proc. Natl. Acad. Sci. USA 105:20764-20769; and U.S. Pat. No. 6,730,480. Thus, the detection of S1P and the sphingosine kinases is important for the understanding of the various systems that S1P influences. Current methods for separating sphingosine from S1P generally use chromatographic, electrophoretic or spectrometric methods. See, e.g., Bandhuvula et al., Biochem. Biophys. Res. Commun. 380:366-370 (2009); Lee et al., Anal. Chem. 80:1620-1627 (2008); Jin et al., Arch. Pharm. […]
The S1P formed by the enzyme was then precipitated in the reaction mix by the addition of 5 μl of 1 M barium acetate+300 μL of 100% ethanol, followed by 30 min incubation on ice. […] The eluted fluoresceinated S1P was quantified by measuring intensity of fluorescence. Preliminary studies established that the two wash steps were sufficient to remove essentially the entire quantity of unprecipitated sphingosine fluorescein. […]

Chain of human sphingosine kinase 1 (hSK1) (Q9NYA1 whole entry): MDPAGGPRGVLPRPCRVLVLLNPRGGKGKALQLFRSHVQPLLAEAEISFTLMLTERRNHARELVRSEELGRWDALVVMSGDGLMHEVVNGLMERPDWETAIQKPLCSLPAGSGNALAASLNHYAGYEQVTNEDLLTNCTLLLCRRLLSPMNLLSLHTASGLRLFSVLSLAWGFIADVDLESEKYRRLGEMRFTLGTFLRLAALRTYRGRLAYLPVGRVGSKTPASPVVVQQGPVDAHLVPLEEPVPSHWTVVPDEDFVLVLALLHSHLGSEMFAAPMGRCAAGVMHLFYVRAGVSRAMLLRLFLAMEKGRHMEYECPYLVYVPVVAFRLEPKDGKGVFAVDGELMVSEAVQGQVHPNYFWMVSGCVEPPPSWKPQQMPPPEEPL

Row | SMILES | inhibition of hSK1 (precipitation of the fluoresceinated product, FIG. 6)
1 | CCCCCCCCCCCCC/C=C/[C@@H](O)[C@@H](N)CO [D/L sphingosine] | caused less precipitation of the fluoresceinated product
2 | CCCCCCCCCCCCC/C=C/[C@@H](O)[C@H](CO)N(C)C [DMS, dimethylsphingosine] | caused less precipitation of the fluoresceinated product
